Measurements as given in patent publication US12637413B2, “Fatty acid amide hydrolase (FAAH) cleavable prodrugs of thyromimetics and combination with peripherally restricted FAAH inhibitors” (Autobahn Therapeutics, Inc., priority 2021, dated 2026).

Each compound was assayed against T1, recombinant human FAAH (rhFAAH) (Homo sapiens, UniProt O00519) (assay: FAAH substrate evaluation (acid metabolite formation)). Details: observed rate constant for acid metabolite formation; 0.5 ng/μL rhFAAH, 1 μM test compound, room temperature, 0-60 minutes.
T1 construct: purchased Cayman Chemical (Ann Arbor, MI, USA)
T1 sequence (O00519 1-579): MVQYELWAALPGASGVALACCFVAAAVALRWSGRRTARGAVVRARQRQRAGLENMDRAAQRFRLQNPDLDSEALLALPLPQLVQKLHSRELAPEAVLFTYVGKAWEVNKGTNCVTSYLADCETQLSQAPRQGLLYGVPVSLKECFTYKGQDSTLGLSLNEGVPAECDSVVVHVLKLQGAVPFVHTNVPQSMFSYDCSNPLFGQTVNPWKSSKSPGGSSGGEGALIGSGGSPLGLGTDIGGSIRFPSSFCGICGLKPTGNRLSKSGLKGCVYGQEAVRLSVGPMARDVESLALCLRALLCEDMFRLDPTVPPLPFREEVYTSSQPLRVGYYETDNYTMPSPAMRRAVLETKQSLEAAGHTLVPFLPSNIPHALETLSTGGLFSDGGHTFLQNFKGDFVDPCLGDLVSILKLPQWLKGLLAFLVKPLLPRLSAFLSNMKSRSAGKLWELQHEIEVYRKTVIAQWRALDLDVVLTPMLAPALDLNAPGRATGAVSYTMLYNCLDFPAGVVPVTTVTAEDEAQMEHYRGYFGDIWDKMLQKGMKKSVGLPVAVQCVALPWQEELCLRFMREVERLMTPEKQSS
Type: biochemical
Description: Purified recombinant human FAAH (rhFAAH) was purchased from Cayman Chemical (Ann Arbor, MI, USA). The total volume for each incubation was 400 μL containing a final 0.5 ng/μL rhFAAH, 1 μM test compound, 1.25% ethanol or 1 μM PF-3845 (FAAH inhibitor), and 0.1% bovine serum albumin in Tris-EDTA buffer at pH 8.0). The positive control was LL-341001. The incubation was conducted at the room temperature. At 0, 5, 15, 30 and 60 minutes, an aliquot of 30 μL reaction mixtures was removed and mixed with 300 μL acetonitrile containing 5 ng/mL terfenadine and 10 ng/mL tolbutamide as internal standards to quench the reaction. The resulting mixture was centrifuged at 4000 rpm, 4° C. for 15 minutes, and 100 μL supernatant was ready for LC-MS/MS analysis to measure the formation of acid metabolite.
Acquity Ultra Performance LC system from Waters was used for sample analysis. The chromatography was performed on a reverse phase Kinetex 2.6 μm C18 column, 2.1×30 mm, 100 Å. The mobile phase A comprised of 0.1% formic acid in water and mobile phase B comprised of 0.1% formic acid in acetonitrile with a 2-min run time at the flow rate of 0.8 mL/min for the acid metabolite from positive control or a 1.5 min run time at the flow rate of 0.9 mL/min for the acid metabolite of test compounds. The mass spectrometer (API-5500 and API Q Trap 4000 Applied Biosystems/MDS SCIEX Instruments, Framingham, MA, USA) was operated under ESI positive or negative ion MRM mode.
The formation of acid metabolite was monitored and quantified using one calibration point of 1 μM. The observed rate constant (ke) for the acid metabolite formation was calculated by plotting the metabolite concentration versus time of incubation with the slope being ke and is shown in Table 1.

Compound	ke
CON(C)C(=O)COc1cc(Cl)c(Cc2ccc(O)c(C(C)C)c2F)c(Cl)c1 [Compound 44]	A (ke is more than or equal to 0.1)
CC(C)c1cc(Cc2c(Cl)cc(OCC(=O)NCCS(=O)O)cc2Cl)ccc1O [Compound 13]	B (ke is less than 0.1 and more than 0)
CC(C)c1cc(Cc2c(Cl)cc(OCC(=O)Nc3ccncc3)cc2Cl)ccc1O [Compound 115, 2-(3,5-dichloro-4-(4-hydroxy-3-isopropylbenzyl)phenoxy)-N-(pyridin-4-yl)acetamide]	A (ke is more than or equal to 0.1)
CCN(C)C(=O)COc1cc(Cl)c(Cc2ccc(O)c(C(C)C)c2F)c(Cl)c1 [Compound 34]	C (ke is 0)
CC(C)c1c(O)ccc(Cc2c(Cl)cc(OCC(=O)NCCF)cc2Cl)c1F [Compound 36]	A (ke is more than or equal to 0.1)
CC(C)c1c(O)ccc(Cc2c(Cl)cc(OCC(=O)N(C)C)cc2Cl)c1F [Compound 32]	A (ke is more than or equal to 0.1)
CCNC(=O)COc1cc(Cl)c(Cc2ccc(O)c(C(C)C)c2F)c(Cl)c1 [Compound 33]	A (ke is more than or equal to 0.1)
CNC(=O)COc1cc(Cl)c(Cc2ccc(O)c(C(C)C)c2)c(Cl)c1F [Compound 37]	B (ke is less than 0.1 and more than 0)
CC(C)c1c(O)ccc(Cc2c(Cl)cc(OCC(=O)NN(C)C)cc2Cl)c1F [Compound 45]	A (ke is more than or equal to 0.1)
CC(C)c1cc(Cc2c(Cl)cc(OCC(=O)Nc3ccccc3O)cc2Cl)ccc1O [Compound 20]	A (ke is more than or equal to 0.1)
CC(C)c1cc(Cc2c(Cl)cc(OCC(=O)Nc3cccc(F)c3)cc2Cl)ccc1O [Compound 25]	A (ke is more than or equal to 0.1)
CC(C)c1cc(Cc2c(Cl)cc(OCC(=O)NCCS(C)(=O)=O)cc2Cl)ccc1O [Compound 30]	A (ke is more than or equal to 0.1)
CC(C)c1cc(Cc2c(Cl)cc(OCC(=O)NC3CCCCC3)cc2Cl)ccc1O [Compound 105, N-cyclohexyl-2-(3,5-dichloro-4-(4-hydroxy-3-isopropylbenzyl)phenoxy)acetamide]	C (ke is 0)
CC(C)c1cc(Cc2c(Cl)cc(OCC(=O)NCc3ccccc3)cc2Cl)ccc1O [Compound 22]	A (ke is more than or equal to 0.1)
CC(C)c1c(O)ccc(Cc2c(Cl)cc(OCC(=O)N(C)C)c(F)c2Cl)c1F [Compound 40]	B (ke is less than 0.1 and more than 0)
CC(C)c1cc(Cc2c(Cl)cc(OCC(=O)Nc3cccnn3)cc2Cl)ccc1O [Compound 104, 2-(3,5-dichloro-4-(4-hydroxy-3-isopropylbenzyl)phenoxy)-N-(pyridazin-3-yl)acetamide]	A (ke is more than or equal to 0.1)
CC(C)c1cc(Cc2c(Cl)cc(OCC(=O)Nc3ccnnc3)cc2Cl)ccc1O [Compound 116, 2-(3,5-dichloro-4-(4-hydroxy-3-isopropylbenzyl)phenoxy)-N-(pyridazin-4-yl)acetamide]	A (ke is more than or equal to 0.1)
CC(C)c1cc(Cc2c(Cl)cc(OCC(=O)NC(CO)CO)cc2Cl)ccc1O [Compound 11]	B (ke is less than 0.1 and more than 0)
COc1ccc(NC(=O)COc2cc(Cl)c(Cc3ccc(O)c(C(C)C)c3)c(Cl)c2)cn1 [Compound 101, 2-(3,5-dichloro-4-{[4-hydroxy-3-(propan-2-yl)phenyl]methyl}phenoxy)-N-(6-methoxypyridin-3-yl)acetamide]	A (ke is more than or equal to 0.1)
CC(C)c1c(O)ccc(Cc2c(Cl)cc(OCC(N)=O)cc2Cl)c1F [Compound 35]	A (ke is more than or equal to 0.1)
CC(C)c1cc(Cc2c(Cl)cc(OCC(=O)NCCCF)cc2Cl)ccc1O [Compound 112, 2-(3,5-dichloro-4-(4-hydroxy-3-isopropylbenzyl)phenoxy)-N-(3-fluoropropyl)acetamide]	A (ke is more than or equal to 0.1)
CC(C)c1cc(Cc2c(Cl)cc(OCC(=O)N(C)C)c(F)c2Cl)ccc1O [Compound 38]	B (ke is less than 0.1 and more than 0)

Other lines, results leading:

ke	Compound
B (ke is less than 0.1 and more than 0)	CC(C)c1cc(Cc2c(Cl)cc(OCC(=O)N(C)CCF)cc2Cl)ccc1O [Compound 125, 2-(3,5-dichloro-4-(4-hydroxy-3-isopropylbenzyl)phenoxy)-N-(2-fluoroethyl)-N-methylacetamide]
A (ke is more than or equal to 0.1)	CC(C)c1cc(Cc2c(Cl)cc(OCC(=O)N[C@H](C)CO)cc2Cl)ccc1O [Compound 9]
A (ke is more than or equal to 0.1)	CC(C)c1cc(Cc2c(Cl)cc(OCC(=O)NCCF)cc2Cl)ccc1O [Compound 14]
B (ke is less than 0.1 and more than 0)	CNN(C)C(=O)COc1cc(Cl)c(Cc2ccc(O)c(C(C)C)c2)c(Cl)c1 [Compound 124, 2-(3,5-dichloro-4-(4-hydroxy-3-isopropylbenzyl)phenoxy)-N,N′-dimethylacetohydrazide]
C (ke is 0)	CC(C)c1cc(Cc2c(Cl)cc(OCC(=O)NC(C)(C)C)cc2Cl)ccc1O [Compound 119, N-(tert-butyl)-2-(3,5-dichloro-4-(4-hydroxy-3-isopropylbenzyl)phenoxy)acetamide]
A (ke is more than or equal to 0.1)	CCNC(=O)COc1cc(Cl)c(Cc2ccc(O)c(C(C)C)c2)c(Cl)c1 [Compound 2]
B (ke is less than 0.1 and more than 0)	CC#CCNC(=O)COc1cc(Cl)c(Cc2ccc(O)c(C(C)C)c2)c(Cl)c1 [Compound 106, N-(but-2-yn-1-yl)-2-(3,5-dichloro-4-(4-hydroxy-3-isopropylbenzyl)phenoxy)acetamide]
A (ke is more than or equal to 0.1)	CONC(=O)COc1cc(Cl)c(Cc2ccc(O)c(C(C)C)c2)c(Cl)c1 [Compound 28]
B (ke is less than 0.1 and more than 0)	CC(C)c1cc(Cc2c(Cl)cc(OCC(=O)N(C)C)cc2Cl)ccc1O [Compound 19]
B (ke is less than 0.1 and more than 0)	CC(C)c1cc(Cc2c(Cl)cc(OCC(=O)N3CCC3)cc2Cl)ccc1O [Compound 118, 1-(azetidin-1-yl)-2-(3,5-dichloro-4-(4-hydroxy-3-isopropylbenzyl)phenoxy)ethan-1-one]
A (ke is more than or equal to 0.1)	CC(C)NC(=O)COc1cc(Cl)c(Cc2ccc(O)c(C(C)C)c2)c(Cl)c1 [Compound 126, 2-(3,5-dichloro-4-(4-hydroxy-3-isopropylbenzyl)phenoxy)-N-isopropylacetamide]
B (ke is less than 0.1 and more than 0)	CC(C)c1cc(Cc2c(Cl)cc(OCC(=O)N(C)N(C)C)cc2Cl)ccc1O [Compound 108, 2-(3,5-dichloro-4-(4-hydroxy-3-isopropylbenzyl)phenoxy)-N,N′,N′-trimethylacetohydrazide]
B (ke is less than 0.1 and more than 0)	CC#CCN(C)C(=O)COc1cc(Cl)c(Cc2ccc(O)c(C(C)C)c2)c(Cl)c1 [Compound 107, N-(but-2-yn-1-yl)-2-(3,5-dichloro-4-(4-hydroxy-3-isopropylbenzyl)phenoxy)-N-methylacetamide]
A (ke is more than or equal to 0.1)	CC(C)c1cc(Cc2c(Cl)cc(OCC(=O)NC3CC3)cc2Cl)ccc1O [Compound 17]
A (ke is more than or equal to 0.1)	CC(C)c1cc(Cc2c(Cl)cc(OCC(=O)NCC(F)(F)F)cc2Cl)ccc1O [Compound 16]
B (ke is less than 0.1 and more than 0)	CC(C)c1cc(Cc2c(Cl)cc(OCC(=O)NCCN)cc2Cl)ccc1O [Compound 12]
